Legend:
[1] = tested on: Ethanol-induced gastric mucosal injury; experiment: Ethanol-induced gastric mucosal injury; type: in vivo, Sprague-Dwaley rats; details: 1 ml of 50% ethanol oral; rats
[2] = tested on: rats; experiment: Toxicity (death) after injection in rats; type: in vivo; details: conclusion from in vivo experiments
[3] = tested on: NSAIDs-induced mitochondrial oxidative stress; experiment: Mitochondrial oxidative stress in gastric mucosa (protein carbonyl, lipid peroxidation, total thiol); type: in vivo, rats; details: NSAIDs (indomethcin, diclofenac)-induced; pretreatment
Experimental: Commercially available kit (Biochain) was used for the isolation of mitochondria from gastric mucosal cells. In brief, scrapped gastric mucosa was finely minced on ice in a petridish containing mitochondria extraction buffer. Ultra-Turrax T-25 homogenizer was used to homogenize the cells. To remove nuclei and unbroken cells the homogenate was first centrifuged at 800×g for 10 min and then finally subjected to 12000×g for 15 min to get the mitochondrial fraction.
Mitochondrial oxidative stress was performed earlier through measurement protein carbonyl formation, lipid peroxidation and measurement of total thiol content (Pal, C; et al. Free Radic Biol Med, 49(2), 258-267; 2010, Maity, P.; et al. J. Biol. Chem. 284:3058-3068; 2009, Maity, P.; et al. J. Biol. Chem. 283:14391-14401; 2008, Maity, P.; et al. J. Pineal Res. 46:314-323; 2009).
Mitochondrial oxidative stress was studied earlier through the measurement of mitochondrial total thiol depletion, lipid peroxidation and protein carbonyl formation. In brief, thiol content was measured by its reaction with 5-5′-dithionitrobenzoic acid (DTNB) to yield the yellow chromophore of TNB (thionitrobenzoic acid), which was measured at 412 nm Mitochondrial lipid peroxidation was assayed by adding 1 ml of the mitochondrial fraction in 0.9% normal saline to 2 ml of TBA-TCA mixture (0.375% w/v and 15% w/v, respectively) in 0.25 N HCl and was mixed and boiled for 15 min which was then cooled and after centrifugation, the absorbance of the supernatant was read at 535 nm. Tetraethoxypropane was used as standard. Protein carbonyl was measured by following the standard colorimetric method that measures the binding of dinitrophenylhydrazine (DNP) to the carbonyl group and was quantified by taking the absorbance at 362 nm.

[4] = tested on: caspase-3; experiment: Caspase-3 activity in gastric mucosal tissue; type: in vivo, rats; details: in dose dependent manner; gastric mucosa
Experimental: From cytosolic fraction of gastric mucosal tissues, caspase-9 and caspse-3 activities were measured using commercially available kit (Biovision, Mountain View, Calif., USA and Sigma respectively). In brief, the gastric mucosa was homogenized in caspase lysis buffer (provided with the respective kit). The homogenate was centrifuged at 16,000×g for 15 min. The supernatant was collected and mixed with 50 μl of 2× reaction buffer (provided with the respective kit). This was followed by addition of the substrates: […] (200 μM final concentration) for caspase-3 and LEHD-pNA (200 μM final concentration) for caspase-9. The mixture was incubated at 37° C. for 1 hr and absorbance was taken at 405 nm (Maity, P.; et al. J. Biol. Chem. 284:3058-3068; 2009, Maity, P.; et al. J. Biol. Chem. 283:14391-14401; 2008, Maity, P.; et al. J. Pineal Res. 46:314-323; 2009).

[5] = tested on: Mitochondrial transmembrane potential (ΔΨm); experiment: Mitochondrial transmembrane potential (JC-1); type: in vivo, rats; details: indomethacin, diclofenac; pretreatment
Experimental: Mitochondrial transmembrane potential (ΔΨm) was measured as described (Maity, P.; et al. J. Biol. Chem. 284:3058-3068; 2009, Maity, P.; et al. J. Biol. Chem. 283:14391-14401; 2008, Maity, P.; et al. J. Pineal Res. 46:314-323; 2009). Mitochondria were isolated from gastric mucosal scraping using Mitoisolation kit (Biochain) as described above. Equal amount of mitochondria (25 μg) from each group (control, indomethacin, diclofenac and SEGA pre-treated indomethacin, diclofenac treated) was taken in 100 μl of JC-1 assay buffer (100 mM MOPS, pH 7.5, containing 550 mM KCl, 50 mM ATP, 50 mM MgCl2, 50 mM sodium succinate, 5 mM EGTA) and were incubated in dark with JC1 (300 nM) for 15 min at 25° C. The fluorescence of each sample was measured in a Hitachi F-7000 fluorescence spectrophtometer (excitation 490 nm, emission 530 nm for JC-1 monomer and emission 590 nm for JC-1 aggregates). ΔΨm was expressed as fluorescence ratio of 590 nm/530 nm.

O=C(NCCc1c[nH]c2ccc(O)cc12)c1cc(O)c(O)c(O)c1 [Compound 3a, 3,4,5-trihydroxy-N-(2-(5-hydroxy-1H-indol-3-yl)ethyl)benzamide]
gastroprotective effect in ethanol induced gastropathy [1]: protects the gastric mucosa
toxicity in rats [2]: nontoxic molecule
depletion of mitochondrial thiol [3]: protects
oxidation of mitochondrial protein (protein carbonyl formation) [3]: protects
peroxidation of mitochondrial lipid [3]: protects
indomethacin-induced activation of caspase-3 [4]: prevents indomethacin-induced activation of caspase-3
mitochondrial membrane potential (fluorescence ratio 590 nm/530 nm, JC-1) [5]: restores all the NSAIDs-induced mitochondrial dysfuctions

— patent US8901317B2, “Tryptamine derivatives, their preparation and their use in gastropathy” (Council of Scientific & Industrial Research, priority 2010, dated 2014)
